Data as given in publication PMC12864978, “Covalent modification of a glutamic acid inspired by HaloTag technology” (Nature Communications, 2026).

Tests used:
[1] = target: Jurkat cell lysate proteome (Homo sapiens, UniProt P37802); test: In-lysate thermal proteome profiling (TPP)
Experimental: (§1) Jurkat cells were grown to a density of 1.0–2.5 × 10⁶ cells/ml. A 100 ml aliquot of the suspension was divided equally into two Falcon tubes and chilled on ice for 2 min. Cells were pelleted by centrifugation at 350×g for 3 min at room temperature. After discarding the supernatant, the combined pellet was resuspended in 25 ml of ice-cold PBS buffer. The washing step—centrifugation at 350×g for 2 min at room temperature, followed by supernatant removal—was further repeated twice. Following the final wash, the cell pellet was resuspended in 1.5 ml of PBS containing 0.4% (v/v) NP40 alternative and flash-frozen in liquid nitrogen. […] The resulting lysate was separated by ultracentrifugation at 100,000×g for 20 min at 4 °C (Beckman Coulter Optima MAX-XP, MLA-80 rotor). The supernatant was carefully collected, snap-frozen in liquid nitrogen, and stored at −80 °C for subsequent analysis.
(§2) Protein concentration was quantified using the Bradford protein assay. […] Following incubation, each aliquot was further subdivided into nine 120 µl portions in PCR tubes. […] For analysis, 75 µl of each supernatant was allocated for mass spectrometry-based thermal protein profiling (TPP), while the remaining 25 µl was used for immunoblotting to assess PDEδ levels.
(§3) For mass spectrometric analysis, sample processing was further proceeded with reduction and alkylation, followed by acetone precipitation and tryptic digestion. Each digested aliquot was then labelled with isobaric TMT reagents (Thermo Fisher Scientific, A52047) corresponding to its specific temperature condition from the thermal shift assay.
(§4) Proteins were considered as stabilised or destabilised when, in all three replicates,
(§5) tailed p-values were determined by applying paired t-test comparing AUC of melting curves
(§6) between DMSO-treated and compound-treated conditions, OR
(§7) least ± 10 % (same direction) compared to the DMSO control.

[2] = target: Jurkat cell lysate proteome (Homo sapiens, UniProt Q9UHA4); test: In-lysate thermal proteome profiling (TPP)
Experimental: as §1, §2, §3, §4, §5, §6, §7

[3] = target: T1, Jurkat cell lysate proteome (Homo sapiens, UniProt Q9H2H9); test: In-lysate thermal proteome profiling (TPP)
T1 sequence (Q9H2H9 1-487): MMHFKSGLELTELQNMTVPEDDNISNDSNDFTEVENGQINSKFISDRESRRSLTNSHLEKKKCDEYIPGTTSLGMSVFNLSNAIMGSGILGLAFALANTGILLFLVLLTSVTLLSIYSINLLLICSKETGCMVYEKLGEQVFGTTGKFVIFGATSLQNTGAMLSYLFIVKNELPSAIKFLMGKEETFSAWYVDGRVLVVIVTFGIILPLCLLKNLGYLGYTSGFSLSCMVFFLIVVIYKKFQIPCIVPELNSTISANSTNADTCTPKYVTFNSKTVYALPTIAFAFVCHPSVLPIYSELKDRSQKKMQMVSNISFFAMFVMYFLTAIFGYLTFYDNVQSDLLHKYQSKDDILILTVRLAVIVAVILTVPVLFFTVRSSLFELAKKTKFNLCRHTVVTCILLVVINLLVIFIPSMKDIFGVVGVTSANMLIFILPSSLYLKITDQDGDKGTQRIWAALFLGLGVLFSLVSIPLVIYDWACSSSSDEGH
Experimental: as §1, §2, §3, §4, §5, §6, §7

[4] = target: Jurkat cell lysate proteome (Homo sapiens, UniProt P05388); test: In-lysate thermal proteome profiling (TPP)
Experimental: as §1, §2, §3, §4, §5, §6, §7

[5] = target: Jurkat cell lysate proteome (Homo sapiens, UniProt P07195); test: In-lysate thermal proteome profiling (TPP)
Experimental: as §1, §2, §3, §4, §5, §6, §7

[6] = target: Jurkat cell lysate proteome (Homo sapiens, UniProt Q14108); test: In-lysate thermal proteome profiling (TPP)
Experimental: as §1, §2, §3, §4, §5, §6, §7

[7] = target: Jurkat cell lysate proteome (Homo sapiens, UniProt O75044); test: In-lysate thermal proteome profiling (TPP)
Experimental: as §1, §2, §3, §4, §5, §6, §7

[8] = target: T2, Jurkat cell lysate proteome (Homo sapiens, UniProt P22087); test: In-lysate thermal proteome profiling (TPP)
T2 sequence (P22087 1-321): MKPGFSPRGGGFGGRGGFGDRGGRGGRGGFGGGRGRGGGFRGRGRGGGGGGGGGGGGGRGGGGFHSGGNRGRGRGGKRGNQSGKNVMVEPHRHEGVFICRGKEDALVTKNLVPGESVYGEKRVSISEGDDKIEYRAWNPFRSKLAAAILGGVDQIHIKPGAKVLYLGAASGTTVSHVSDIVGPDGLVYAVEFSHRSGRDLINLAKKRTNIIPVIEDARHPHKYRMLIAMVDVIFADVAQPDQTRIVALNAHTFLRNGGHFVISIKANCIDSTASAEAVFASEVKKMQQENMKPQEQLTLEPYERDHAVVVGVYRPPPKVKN
Experimental: as §1, §2, §3, §4, §5, §6, §7

[9] = target: Jurkat cell lysate proteome (Homo sapiens, UniProt P62899); test: In-lysate thermal proteome profiling (TPP)
Experimental: as §1, §2, §3, §4, §5, §6, §7

[10] = target: T3, Jurkat cell lysate proteome (Homo sapiens, UniProt O95628); test: In-lysate thermal proteome profiling (TPP)
T3 sequence (O95628 1-575): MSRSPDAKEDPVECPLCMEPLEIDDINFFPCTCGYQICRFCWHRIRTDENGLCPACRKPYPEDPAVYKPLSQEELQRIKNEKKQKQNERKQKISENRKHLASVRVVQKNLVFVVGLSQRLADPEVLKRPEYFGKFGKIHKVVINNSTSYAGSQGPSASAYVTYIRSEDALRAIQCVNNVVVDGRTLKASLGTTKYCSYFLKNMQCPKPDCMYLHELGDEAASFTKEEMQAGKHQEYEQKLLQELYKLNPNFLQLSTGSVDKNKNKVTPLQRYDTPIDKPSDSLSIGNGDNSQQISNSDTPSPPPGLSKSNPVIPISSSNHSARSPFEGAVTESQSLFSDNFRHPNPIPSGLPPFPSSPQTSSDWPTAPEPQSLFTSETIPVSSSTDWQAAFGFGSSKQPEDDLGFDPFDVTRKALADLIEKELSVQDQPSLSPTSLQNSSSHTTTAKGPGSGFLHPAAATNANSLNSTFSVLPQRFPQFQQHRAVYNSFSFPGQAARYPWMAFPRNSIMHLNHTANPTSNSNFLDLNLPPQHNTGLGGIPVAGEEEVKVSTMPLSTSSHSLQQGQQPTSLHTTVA
Experimental: as §1, §2, §3, §4, §5, §6, §7

[11] = test system: Rheb localisation in PA-TU-8902 cells; test: Immunofluorescence staining of Rheb; type: cell-based, human; conditions: 5 µM, overnight
Experimental: Immunostaining: compound-treated PA-TU-8902 cells were washed once with cold PBS, fixed with 3.7% paraformaldehyde in PBS by incubation at room temperature for 10 min and permeabilised with 0.3% Triton X-100 in PBS by incubation at room temperature for 15 min. […] After washing with PBS-T three times, PBS-incubated cells were imaged with Observer Z1 (Carl Zeiss, Germany) with a 63× oil objective.

[12] = Mouse liver microsomal stability; type: in vitro ADME
Excerpt: plotted as mean ± standard deviation, representative of 3 technical replicates ( N = 3). Unpaired, two-
Data were plotted as mean ± standard deviation, representative of 3 technical replicates in the presence

[13] = 10 µM, 15 min, listed as DeltaTag

Chain of Jurkat cell lysate proteome (Homo sapiens, UniProt P37802) (P37802 whole entry): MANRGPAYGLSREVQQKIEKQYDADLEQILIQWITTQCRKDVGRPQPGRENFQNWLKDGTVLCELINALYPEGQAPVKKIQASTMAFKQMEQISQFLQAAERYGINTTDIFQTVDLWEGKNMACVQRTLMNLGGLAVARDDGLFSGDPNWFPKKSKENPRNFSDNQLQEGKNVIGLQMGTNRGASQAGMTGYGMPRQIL
Chain of Jurkat cell lysate proteome (Homo sapiens, UniProt P07195) (P07195 whole entry): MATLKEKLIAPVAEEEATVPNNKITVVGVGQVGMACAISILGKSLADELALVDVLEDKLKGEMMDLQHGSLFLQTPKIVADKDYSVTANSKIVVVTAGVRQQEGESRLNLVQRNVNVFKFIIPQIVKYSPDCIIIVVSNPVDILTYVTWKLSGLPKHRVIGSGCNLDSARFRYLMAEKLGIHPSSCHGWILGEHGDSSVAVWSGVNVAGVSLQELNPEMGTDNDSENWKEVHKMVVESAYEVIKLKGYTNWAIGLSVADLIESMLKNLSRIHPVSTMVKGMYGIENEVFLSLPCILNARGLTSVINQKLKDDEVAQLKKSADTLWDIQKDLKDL
Chain of Jurkat cell lysate proteome (Homo sapiens, UniProt Q9UHA4) (Q9UHA4 whole entry): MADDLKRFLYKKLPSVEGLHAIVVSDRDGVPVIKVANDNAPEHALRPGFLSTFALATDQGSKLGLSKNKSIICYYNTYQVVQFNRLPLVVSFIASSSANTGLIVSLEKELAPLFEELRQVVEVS
Chain of Jurkat cell lysate proteome (Homo sapiens, UniProt Q14108) (Q14108 whole entry): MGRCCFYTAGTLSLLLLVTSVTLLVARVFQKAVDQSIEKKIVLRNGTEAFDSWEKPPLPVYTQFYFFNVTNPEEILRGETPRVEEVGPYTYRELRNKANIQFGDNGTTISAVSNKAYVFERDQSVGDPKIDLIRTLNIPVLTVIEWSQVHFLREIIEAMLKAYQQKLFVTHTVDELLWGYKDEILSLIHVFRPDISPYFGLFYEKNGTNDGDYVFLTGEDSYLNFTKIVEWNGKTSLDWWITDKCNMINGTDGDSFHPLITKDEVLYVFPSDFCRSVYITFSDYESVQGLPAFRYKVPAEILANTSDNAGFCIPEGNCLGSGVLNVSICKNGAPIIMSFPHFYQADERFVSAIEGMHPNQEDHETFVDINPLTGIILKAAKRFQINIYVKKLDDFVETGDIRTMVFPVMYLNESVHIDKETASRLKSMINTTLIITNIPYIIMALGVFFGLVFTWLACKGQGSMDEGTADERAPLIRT

Structure (SMILES): Cc1ccc(-n2nc3c(=O)n(CCCCS(=O)(=O)N(CCc4cccc(CCBr)c4)CC4CCNCC4)nc(C)c3c2C)cc1 [6a]
- ΔAUC TAGLN2 ([1]; 10 µM, 15 min): 1.4
- ΔI67°C TAGLN2 ([1]; 10 µM, 15 min): -5 ± 9%
- ΔTm at 10 µM ([1]; read-out: ΔTm TAGLN2, 10 µM, 15 min): 2.8 ± 0.7 °C
- ΔAUC LAMTOR3 ([2]; 10 µM, 15 min): -2.1
- ΔI67°C LAMTOR3 ([2]; 10 µM, 15 min): -3 ± 2%
- ΔAUC LAMTOR3 [2, 13]: −2.1
- ΔTm at 10 µM ([2]; read-out: ΔTm LAMTOR3, 10 µM, 15 min): -2.6 ± 1.4 °C
- ΔAUC SLC38A1 ([3]; 10 µM, 15 min): -3.3
- ΔI67°C SLC38A1 ([3]; 10 µM, 15 min): -13 ± 5%
- ΔTm at 10 µM ([3]; read-out: ΔTm SLC38A1, 10 µM, 15 min): -3.1 ± 0.5 °C
- ΔAUC RPLP0 ([4]; 10 µM, 15 min): -2.9
- ΔI67°C RPLP0 ([4]; 10 µM, 15 min): -4 ± 5%
- ΔTm at 10 µM ([4]; read-out: ΔTm RPLP0, 10 µM, 15 min): -5.2 ± 2.7 °C
- ΔAUC LDHB ([5]; 10 µM, 15 min): -1.8
- ΔI67°C LDHB ([5]; 10 µM, 15 min): -1 ± 4%
- ΔTm at 10 µM ([5]; read-out: ΔTm LDHB, 10 µM, 15 min): -2.9 ± 0.7 °C
- ΔI67°C SCARB2 ([6]; 10 µM, 15 min): -14 ± 4%
- ΔTm at 10 µM ([6]; read-out: ΔTm SCARB2, 10 µM, 15 min): 0.7 ± 2.1 °C
- ΔAUC SRGAP2 ([7]; 10 µM, 15 min): -2.5
- ΔI67°C SRGAP2 ([7]; 10 µM, 15 min): -10 ± 7%
- ΔAUC SRGAP2 [7, 13]: −2.5
- ΔTm at 10 µM ([7]; read-out: ΔTm SRGAP2, 10 µM, 15 min): -1.3 ± 1.1 °C
- ΔAUC FBL ([8]; 10 µM, 15 min): -1.8
- ΔI67°C FBL ([8]; 10 µM, 15 min): -1 ± 2%
- ΔTm at 10 µM ([8]; read-out: ΔTm FBL, 10 µM, 15 min): -1.8 ± 1.1 °C
- ΔAUC RPL31 ([9]; 10 µM, 15 min): -2.5
- ΔI67°C RPL31 ([9]; 10 µM, 15 min): -6 ± 5%
- ΔTm at 10 µM ([9]; read-out: ΔTm RPL31, 10 µM, 15 min): -2.1 ± 0.6 °C
- ΔAUC CNOT4 ([10]; 10 µM, 15 min): -1.7
- ΔI67°C CNOT4 ([10]; 10 µM, 15 min): 0 ± 3%
- ΔTm at 10 µM ([10]; read-out: ΔTm CNOT4, 10 µM, 15 min): -2.7 ± 1 °C
- cellular Rheb distribution [11]: visible and sustained redistribution of Rheb to endomembranes
- CLhep predicted ([12]; liver microsomes, translated from intrinsic clearance, mouse, read-out: in vivo clearance (simplified well-stirred model) (converted)): ~66.7 mL/min/kg
- microsomal stability in the absence of co-factor NADPH ([12]; mouse liver microsomes): metabolically stable
- microsomal CLint ([12]; mouse liver microsomes 0.5 mg/ml, + NADPH, read-out: intrinsic clearance): 117 µL/min/mg
- time to almost complete metabolism ([12]; mouse, liver microsomes, + NADPH): ≤ 50 min
- half-life ([12]; mouse, liver microsomes, + NADPH, read-out: half-life T1/2 in mouse liver microsomes): 11.8 min
